Source: PubChem BioAssay AID2060485 (Molecular Pharmacology Branch, DTP, NCI, 2025)

System: A375 multi-cell spheroids with HUVEC/MSC, viability
Assay: Anticancer human tumor A375 cell line growth inhibition [GQUAD];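 further: spheroids exposed to compounds for seven days before readout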
Settings: for IC50: curve of first compound; for viability, T/C: stronger effect = lower value
Outline: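 Multi-cell-type spheroids of tumor cells with HUVEC and mesenchymal stem cells, treated with drug combinations. Concentrations descend in half-log steps from near clinical Cmax, or from 10 microM where Cmax is unknown; viability read-out.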

[1] = second compound 0.0316 µM, first compound 0.0316 µM
[2] = second compound 0.0316 µM, first compound 0.1 µM
[3] = second compound 0.0316 µM, first compound 0.316 µM
[4] = second compound 0.0316 µM, first compound 1 µM
[5] = second compound 0.0316 µM, first compound 3.16 µM
[6] = second compound 0.0316 µM, first compound 10 µM
[7] = second compound 0.1 µM, first compound 0.0316 µM
[8] = second compound 0.1 µM, first compound 0.1 µM
[9] = second compound 0.1 µM, first compound 0.316 µM
[10] = second compound 0.1 µM, first compound 1 µM
[11] = second compound 0.1 µM, first compound 3.16 µM
[12] = second compound 0.1 µM, first compound 10 µM
[13] = second compound 0.316 µM, first compound 0.0316 µM
[14] = second compound 0.316 µM, first compound 0.1 µM
[15] = second compound 0.316 µM, first compound 0.316 µM
[16] = second compound 0.316 µM, first compound 1 µM
[17] = second compound 0.316 µM, first compound 3.16 µM
[18] = second compound 0.316 µM, first compound 10 µM
[19] = second compound 1 µM, first compound 0.0316 µM
[20] = second compound 1 µM, first compound 0.1 µM
[21] = second compound 1 µM, first compound 0.316 µM
[22] = second compound 1 µM, first compound 1 µM
[23] = second compound 1 µM, first compound 3.16 µM
[24] = second compound 1 µM, first compound 10 µM
[25] = second compound 3.16 µM, first compound 0.0316 µM
[26] = second compound 3.16 µM, first compound 0.1 µM
[27] = second compound 3.16 µM, first compound 0.316 µM
[28] = second compound 3.16 µM, first compound 1 µM
[29] = second compound 3.16 µM, first compound 3.16 µM
[30] = second compound 3.16 µM, first compound 10 µM
[31] = second compound 10 µM, first compound 0.0316 µM
[32] = second compound 10 µM, first compound 0.1 µM
[33] = second compound 10 µM, first compound 0.316 µM
[34] = second compound 10 µM, first compound 1 µM
[35] = second compound 10 µM, first compound 3.16 µM
[36] = second compound 10 µM, first compound 10 µM

SMILES: C#Cc1c(F)ccc2cc(O)cc(-c3ncc4c(N5CC6CCC(C5)N6)nc(OCC56CCCN5CC(F)C6)nc4c3F)c12 (stereo not drawn) + CN(C)c1ccc(Nc2c3ccc(NC(=O)CCN4CCCC4)cc3nc3cc(NC(=O)CCN4CCCC4)ccc23)cc1
- IC50 (second compound 0.0316 µM): > 10000 nM
- IC50 (second compound 0.1 µM): > 10000 nM
- IC50 (second compound 0.316 µM): > 10000 nM
- IC50 (second compound 1 µM): > 10000 nM
- IC50 (second compound 3.16 µM): > 10000 nM
- IC50 (second compound 10 µM): > 10000 nM
- viability, T/C [1]: 111%
- viability, T/C [2]: 98.5%
- viability, T/C [3]: 101%
- viability, T/C [4]: 108%
- viability, T/C [5]: 106%
- viability, T/C [6]: 112%
- viability, T/C [7]: 104%
- viability, T/C [8]: 103%
- viability, T/C [9]: 105%
- viability, T/C [10]: 108%
- viability, T/C [11]: 107%
- viability, T/C [12]: 107%
- viability, T/C [13]: 99.5%
- viability, T/C [14]: 98.4%
- viability, T/C [15]: 99.3%
- viability, T/C [16]: 109%
- viability, T/C [17]: 102%
- viability, T/C [18]: 98.6%
- viability, T/C [19]: 106%
- viability, T/C [20]: 98%
- viability, T/C [21]: 99.4%
- viability, T/C [22]: 109%
- viability, T/C [23]: 107%
- viability, T/C [24]: 98.1%
- viability, T/C [25]: 103%
- viability, T/C [26]: 98.7%
- viability, T/C [27]: 104%
- viability, T/C [28]: 97.2%
- viability, T/C [29]: 102%
- viability, T/C [30]: 103%
- viability, T/C [31]: 96.6%
- viability, T/C [32]: 102%
- viability, T/C [33]: 96.2%
- viability, T/C [34]: 96.3%
- viability, T/C [35]: 102%
- viability, T/C [36]: 102%

SMILES: CC1COCCN1c1cc(C2(O)CC3CCC(C2)O3)c2cnn(-c3ccn[nH]3)c2n1 (stereo not drawn) + Cc1cnc(CNC(=O)c2c(=O)c3ccc(N4CCCN(C)CC4)nc3n3c2sc2ccccc23)cn1
- IC50 (second compound 0.0316 µM): 127 nM
- IC50 (second compound 0.1 µM): 57.5 nM
- IC50 (second compound 0.316 µM): < 31.6 nM
- IC50 (second compound 1 µM): < 31.6 nM
- IC50 (second compound 3.16 µM): < 31.6 nM
- IC50 (second compound 10 µM): < 31.6 nM
- viability, T/C [1]: 86.1%
- viability, T/C [2]: 51.7%
- viability, T/C [3]: 38.3%
- viability, T/C [4]: 15.7%
- viability, T/C [5]: 10.2%
- viability, T/C [6]: 7.77%
- viability, T/C [7]: 57%
- viability, T/C [8]: 42.5%
- viability, T/C [9]: 31.2%
- viability, T/C [10]: 15.2%
- viability, T/C [11]: 11%
- viability, T/C [12]: 7.11%
- viability, T/C [13]: 38%
- viability, T/C [14]: 29.7%
- viability, T/C [15]: 28.9%
- viability, T/C [16]: 19.1%
- viability, T/C [17]: 10.3%
- viability, T/C [18]: 7.26%
- viability, T/C [19]: 40.9%
- viability, T/C [20]: 32%
- viability, T/C [21]: 27.3%
- viability, T/C [22]: 14.4%
- viability, T/C [23]: 10.5%
- viability, T/C [24]: 7.81%
- viability, T/C [25]: 31.9%
- viability, T/C [26]: 27.4%
- viability, T/C [27]: 23.4%
- viability, T/C [28]: 14.3%
- viability, T/C [29]: 10.1%
- viability, T/C [30]: 5.41%
- viability, T/C [31]: 24.7%
- viability, T/C [32]: 22.5%
- viability, T/C [33]: 21.8%
- viability, T/C [34]: 13.7%
- viability, T/C [35]: 9.6%
- viability, T/C [36]: 4.53%

SMILES: O=c1[nH]cc(F)c(=O)[nH]1 + CN(C)c1ccc(Nc2c3ccc(NC(=O)CCN4CCCC4)cc3nc3cc(NC(=O)CCN4CCCC4)ccc23)cc1
- IC50 (second compound 0.0316 µM): > 10000 nM
- IC50 (second compound 0.1 µM): > 10000 nM
- IC50 (second compound 0.316 µM): > 10000 nM
- IC50 (second compound 1 µM): > 10000 nM
- IC50 (second compound 3.16 µM): > 10000 nM
- IC50 (second compound 10 µM): > 10000 nM
- viability, T/C [1]: 98.7%
- viability, T/C [2]: 107%
- viability, T/C [3]: 97.2%
- viability, T/C [4]: 106%
- viability, T/C [5]: 109%
- viability, T/C [6]: 99.3%
- viability, T/C [7]: 99.8%
- viability, T/C [8]: 104%
- viability, T/C [9]: 99.3%
- viability, T/C [10]: 103%
- viability, T/C [11]: 106%
- viability, T/C [12]: 96.8%
- viability, T/C [13]: 112%
- viability, T/C [14]: 102%
- viability, T/C [15]: 97.8%
- viability, T/C [16]: 103%
- viability, T/C [17]: 107%
- viability, T/C [18]: 92.9%
- viability, T/C [19]: 108%
- viability, T/C [20]: 100%
- viability, T/C [21]: 94.2%
- viability, T/C [22]: 104%
- viability, T/C [23]: 105%
- viability, T/C [24]: 96%
- viability, T/C [25]: 108%
- viability, T/C [26]: 98.1%
- viability, T/C [27]: 101%
- viability, T/C [28]: 99.1%
- viability, T/C [29]: 100%
- viability, T/C [30]: 95.4%
- viability, T/C [31]: 106%
- viability, T/C [32]: 94.4%
- viability, T/C [33]: 101%
- viability, T/C [34]: 102%
- viability, T/C [35]: 105%
- viability, T/C [36]: 98.4%

SMILES: Cc1[nH]c2ccccc2c1CCNCc1ccc(/C=C/C(=O)NO)cc1 + Cc1[nH]c2ccc(F)cc2c1-c1nc2c3cccnc3c3ncccc3c2[nH]1
- IC50 (second compound 0.0316 µM): 153 nM
- IC50 (second compound 0.1 µM): 150 nM
- IC50 (second compound 0.316 µM): 152 nM
- IC50 (second compound 1 µM): 138 nM
- IC50 (second compound 3.16 µM): 60.6 nM
- IC50 (second compound 10 µM): 95.8 nM
- viability, T/C (second compound 0.0316 µM, first compound 0.000999 µM): 102%
- viability, T/C (second compound 0.0316 µM, first compound 0.00316 µM): 108%
- viability, T/C (second compound 0.0316 µM, first compound 0.00999 µM): 115%
- viability, T/C [1]: 112%
- viability, T/C (second compound 0.0316 µM, first compound 0.0999 µM): 73.4%
- viability, T/C [3]: 10.5%
- viability, T/C (second compound 0.1 µM, first compound 0.000999 µM): 105%
- viability, T/C (second compound 0.1 µM, first compound 0.00316 µM): 109%
- viability, T/C (second compound 0.1 µM, first compound 0.00999 µM): 110%
- viability, T/C [7]: 124%
- viability, T/C (second compound 0.1 µM, first compound 0.0999 µM): 72%
- viability, T/C [9]: 9.67%
- viability, T/C (second compound 0.316 µM, first compound 0.000999 µM): 110%
- viability, T/C (second compound 0.316 µM, first compound 0.00316 µM): 98.1%
- viability, T/C (second compound 0.316 µM, first compound 0.00999 µM): 118%
- viability, T/C [13]: 116%
- viability, T/C (second compound 0.316 µM, first compound 0.0999 µM): 72.4%
- viability, T/C [15]: 10.8%
- viability, T/C (second compound 1 µM, first compound 0.000999 µM): 98%
- viability, T/C (second compound 1 µM, first compound 0.00316 µM): 103%
- viability, T/C (second compound 1 µM, first compound 0.00999 µM): 113%
- viability, T/C [19]: 106%
- viability, T/C (second compound 1 µM, first compound 0.0999 µM): 65.9%
- viability, T/C [21]: 8.42%
- viability, T/C (second compound 3.16 µM, first compound 0.000999 µM): 76.4%
- viability, T/C (second compound 3.16 µM, first compound 0.00316 µM): 78.5%
- viability, T/C (second compound 3.16 µM, first compound 0.00999 µM): 81.9%
- viability, T/C [25]: 86%
- viability, T/C (second compound 3.16 µM, first compound 0.0999 µM): 26.4%
- viability, T/C [27]: 5.39%
- viability, T/C (second compound 10 µM, first compound 0.000999 µM): 86%
- viability, T/C (second compound 10 µM, first compound 0.00316 µM): 93%
- viability, T/C (second compound 10 µM, first compound 0.00999 µM): 98.3%
- viability, T/C [31]: 92.2%
- viability, T/C (second compound 10 µM, first compound 0.0999 µM): 48.4%
- viability, T/C [33]: 5.49%
